For data set [1] the following is noted: BCS-2 type drug; cited from earlier work.
Data set [2] in a line: Dissolution of Efavirenz spray dried dispersions in pH 6.8 phosphate buffer media (Pion μDiss Profiler). It counts as physicochemical. The method, then: (§1) The active pharmaceutical ingredient (API) and polymer were mixed in a 30:70 ratio and spray-dried into a spray dried dispersion (SDD). The following are the solution preparation and spray drying process information. Solution preparation: Efavirenz and polymers were dissolved in a 2:1 (w/w) mixture of acetone:methanol solution at a total 3% solid loading. Dissolution of all components was visually confirmed before spray drying. Spray drying: Spray drying was performed on a GEA-Niro SD Micro spray dryer. All dispersions were spray dried targeting an inlet gas temperature of 85° C., 25 kg/hour process gas flow, 0.5 barr atomization gas pressure, 1.5 kg/hour atomizing gas flow, and an adjustable liquid feed rate targeting an outlet gas temperature of 55° C. The feed solution was held at ambient conditions. Dissolution: The dissolution tests were conducted using Pion μDiss Profiler with in situ Fiber Optic UV-Vis Monitoring. 66.7 mg spray dried dispersion (SDD) was weighed and tested in the dissolution, with 30% drug loading level (20 mg API). The controlled reference used in dissolution testing is pure API Efavirenz (20 mg). The quantity of dissolution media is 20 mL. The API concentrations were monitored for 2 hours. For each sample, triplicate measurements were taken and the average results were reported. Fasted Simulated Intestine Fluid (FaSSIF), as well as pH 6.8 phosphate buffer, were used to perform the dissolution. FaSSIF is virtually the same as the small intestinal juices present when one hasn't eaten any food, and contain bile salts and phospholipids, physiologically relevant surfactants which are missing from typical dissolution media. The use of FaSSIF media can help to better correlate the in vitro dissolution property and the in vivo response (IVIVC), so as to further understand the API performance in actual human body. Meanwhile, pH 6.8 phosphate buffer medium was also used in the study, as it was more typically used in formulation development/screening process, pH 6.8 phosphate buffer medium is not as indicated as FaSSIF medium in terms of establishing the IVIVC. […]

Data set [3] is described as follows: Dissolution of Efavirenz spray dried dispersions in FaSSIF media (Pion μDiss Profiler). It counts as physicochemical. The protocol:
as §1

The conditions of data set [4]: cited from earlier work.
For data set [5] the following is noted: description of the API; cited from earlier work.
Data set [6] is described as follows: Glass transition temperature (Tg) by differential scanning calorimetry. It counts as physicochemical. To be noted: regular DSC, heat-cool-heat, 10° C./minute, second heating cycle. The protocol: Differential Scanning Calorimetry (DSC): Glass transition temperature Tg is an important indicator of API physical stability against crystallization through storage. The higher Tg, the better physical stability. Generally speaking, if the Tg is equal to or higher than storage temperature+50° C., then the product is expected to be very stable throughout the entire shelf life. If the Tg is between storage temperature and temperature+50° C., then some stability issue may occur.
The glass transition temperature (Tg) measurement were conducted using TA instrument, Q2000. For pure ingredients, regular DSC set up was used. A heat-cool-heat cycle with a heating rate of 10° C./minutes was implemented. The first heating cycle is used to standardize sample by erasing its thermal history, and the Tg from second heating cycle is reported. For SDD, modulated DSC set up was used. An average heating rate of 2° C./minute with modulation amplitude of 1° per 40 seconds was implemented.
The measurement results are summarized below in the Table. […] Stable SDDs are expected from this indicator.
(In DSC, transitions show as peaks or steps in heat flow.)

The mark [7] stands for this setting: 20 mg API in 20 mL, 30% drug load SDD (API:polymer 30:70), 2 hours, mean of triplicate.
Where [8] appears, read: Efavirenz concentration at 120 min, SDD 30:70.

Molecules are shown by their SMILES.

In general, AUC refers to concentration integrated over time. Higher therefore signals more exposure.

For `O=C1Nc2ccc(Cl)cc2[C@@](C#CC2CC2)(C(F)(F)F)O1` [Efavirenz], the aqueous solubility result in data set [1] was “poor”. Besides, the AUC in data set [2] (setting [7]) was 960.92 µg·min/mL; in data set [3] (setting [7]), 18702.91 µg·min/mL. Besides, the relAUC in data set [2] (AUC of SDD vs AUC of neat API) and in data set [3] (AUC of SDD vs AUC of neat API) was 1.0 each time. Moreover, the C120 worked out at 9.924 µg/mL in data set [2] (setting [8]) and 166.7892 µg/mL in data set [3] (setting [8]). The “partition coefficient in an octanol-water system (logP)” value in data set [4] is reported as 4.7. The glass transition temperature entry in data set [5] was “around 35 °C”. The “Tg, Pure ingredient” value in data set [6] was 34.9 °C.

The values above are taken from patent US11753484B2, “Cellulose ether-lactam hybrid polymers, compositions, and methods for preparing and using the hybrid polymers” (HERCULES LLC, priority 2017, dated 2023).
